Data: BindingDB's records for doi:10.1021/ml100192b (2011)

Columns and labels:
[1] = Inhibition of maltase in mouse intestinal input by glucose release assay
[2] = Inhibition of lactase in mouse intestinal input by glucose release assay

Row | Compound | IC50 [1] [µM] | IC50 [2] [µM]
1 | CCCCCCCOCCCCCN1C[C@H](O)[C@@H](O)[C@H](O)[C@@H]1CO [N-Heptoxypentyl-L-ido-1-deoxynojirimycin] | > 1000 | 250
2 | CCCCCCCOCCCCCN1C[C@H](O)[C@@H](O)[C@H](O)[C@H]1CO [N-Heptoxypentyl-1-deoxynojirimycin] | 7 | 250
